Measurements as given in PMC6006285, “Specific stereochemistry of OP-1074 disrupts estrogen receptor alpha helix 12 and confers pure antiestrogenic activity” (Nature Communications, 2018).
Like-named read-outs stand apart in the source and are kept apart here.

Legend:
[1] = tested on: estrogen responsive reporter gene, ERE-tk109-Luc, in MCF-7 cells; experiment: Inhibition of E2-stimulated transcription of ERE-tk109-Luc reporter gene in MCF-7 cells; format: cell-based; conditions: Homo sapiens
[2] = target: T1, androgen receptor (AR) (Homo sapiens, UniProt P10275); experiment: PRE3X-TATA-Luc reporter in HeLa cells transfected with AR; format: cell-based; conditions: alone or + 32 nM R1881, 22 h
T1 construct: HeLa cells were transfected as above but also with plasmids for full length wild; expressed in transfected cells; host or cells: HeLa
T1 sequence (P10275 1-920): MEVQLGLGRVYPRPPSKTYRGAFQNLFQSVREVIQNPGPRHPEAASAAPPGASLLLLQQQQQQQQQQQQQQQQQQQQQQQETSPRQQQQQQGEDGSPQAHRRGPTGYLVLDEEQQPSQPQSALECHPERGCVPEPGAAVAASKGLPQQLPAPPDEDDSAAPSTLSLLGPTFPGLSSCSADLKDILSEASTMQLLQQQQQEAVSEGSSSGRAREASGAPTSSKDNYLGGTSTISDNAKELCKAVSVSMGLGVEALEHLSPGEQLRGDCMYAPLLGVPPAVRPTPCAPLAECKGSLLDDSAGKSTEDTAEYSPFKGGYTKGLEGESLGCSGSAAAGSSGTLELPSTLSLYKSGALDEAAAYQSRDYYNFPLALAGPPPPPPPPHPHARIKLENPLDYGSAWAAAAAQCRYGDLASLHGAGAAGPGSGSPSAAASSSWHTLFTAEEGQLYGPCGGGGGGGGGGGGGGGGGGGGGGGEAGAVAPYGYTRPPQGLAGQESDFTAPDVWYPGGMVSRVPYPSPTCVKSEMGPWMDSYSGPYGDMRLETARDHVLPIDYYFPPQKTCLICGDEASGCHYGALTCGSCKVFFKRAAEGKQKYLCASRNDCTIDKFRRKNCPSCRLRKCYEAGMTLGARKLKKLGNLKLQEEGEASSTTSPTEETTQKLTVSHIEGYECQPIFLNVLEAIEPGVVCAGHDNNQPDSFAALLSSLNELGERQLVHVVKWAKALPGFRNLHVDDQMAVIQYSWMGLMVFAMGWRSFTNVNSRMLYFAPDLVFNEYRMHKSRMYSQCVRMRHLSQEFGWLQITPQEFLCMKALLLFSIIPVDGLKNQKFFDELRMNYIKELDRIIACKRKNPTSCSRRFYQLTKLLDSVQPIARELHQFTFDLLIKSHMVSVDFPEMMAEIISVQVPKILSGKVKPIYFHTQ
Procedure: (§1) representative experiment. […]
(§2) receptor (AR, (B)), glucocorticoid receptor (GR, (C)), and the B-isoform of the progesterone receptor (PR-B, (D)). HeLa cells were transfected with the designated wild type receptor along with reporter gene PRE3X-TATA-Luc, which is promiscuously activated with known agonists specific for each receptor: R1881 for AR, dexamethasone (Dex) for GR, and medroxyprogesterone acetate (MPA) for PR-B. Each receptor was also dosed with one concentration of known antagonist for each receptor: 32 nM bicalutamide for AR, and 500 nM RU486 for GR and PR. Transfected cells were treated with the designated ligands for 22 hours and luciferase activity assayed. Shown are representative experiments, independently performed at least 3 times. Note that curves for agonists for each receptor were performed in separate experiments. Shown are means with SEM, normalized to percent of 32 nM R1881 for AR, 32 nM Dex for GR, and 0.5 µM MPA for PR-B (except with MPA alone, which was normalized to […]
(§3) either ERα or ERβ, and 85 ng ERE-3x-Luc, containing 3 copies of estrogen-response element (ERE) cloned into pGL4.23 luciferase reporter gene containing a minimal TATA promoter […]
(§4) hours (1.25% total final charcoal dextran stripped FBS). Bright Glo luciferase reagent (Promega) […]

[3] = tested on: AP activity in Ishikawa uterine cells; experiment: Alkaline phosphatase (AP) assay, agonist mode (absence of E2); format: cell-based, human
Procedure: Our primary screen to distinguish pure antiestrogens from SERMs was induction of alkaline phosphatase (AP) activity in Ishikawa uterine cells. […] The reference SERM used in our screen was endoxifen (N-desmethyl-4-hydroxytamoxifen), the most abundant bioactive metabolite of tamoxifen.
Shown is a representative figure analyzed and presented as above.
At least 4 h later cells were treated with antiestrogens and media was diluted to 2.5% stripped FBS. Cells were incubated for 3 days, media removed and plates frozen at −80 °C. Thawed plates were incubated with a chromogenic substrate of AP, p-nitrophenyl phosphate (ThermoFisher Scientific, #36721), for 40–60 min at 40 °C, and absorbance read at 405 nm on the Varioskan Lux multimodal plate reader (ThermoFisher Scientific, #VLBL00D0).

[4] = target: T2, glucocorticoid receptor (GR) (Homo sapiens, UniProt P04150); experiment: PRE3X-TATA-Luc reporter in HeLa cells transfected with GR; format: cell-based; conditions: alone or + 32 nM Dex, 22 h
T2 construct: HeLa cells were transfected as above but also with plasmids for full length wild; expressed in transfected cells; host or cells: HeLa
T2 sequence (P04150 1-777): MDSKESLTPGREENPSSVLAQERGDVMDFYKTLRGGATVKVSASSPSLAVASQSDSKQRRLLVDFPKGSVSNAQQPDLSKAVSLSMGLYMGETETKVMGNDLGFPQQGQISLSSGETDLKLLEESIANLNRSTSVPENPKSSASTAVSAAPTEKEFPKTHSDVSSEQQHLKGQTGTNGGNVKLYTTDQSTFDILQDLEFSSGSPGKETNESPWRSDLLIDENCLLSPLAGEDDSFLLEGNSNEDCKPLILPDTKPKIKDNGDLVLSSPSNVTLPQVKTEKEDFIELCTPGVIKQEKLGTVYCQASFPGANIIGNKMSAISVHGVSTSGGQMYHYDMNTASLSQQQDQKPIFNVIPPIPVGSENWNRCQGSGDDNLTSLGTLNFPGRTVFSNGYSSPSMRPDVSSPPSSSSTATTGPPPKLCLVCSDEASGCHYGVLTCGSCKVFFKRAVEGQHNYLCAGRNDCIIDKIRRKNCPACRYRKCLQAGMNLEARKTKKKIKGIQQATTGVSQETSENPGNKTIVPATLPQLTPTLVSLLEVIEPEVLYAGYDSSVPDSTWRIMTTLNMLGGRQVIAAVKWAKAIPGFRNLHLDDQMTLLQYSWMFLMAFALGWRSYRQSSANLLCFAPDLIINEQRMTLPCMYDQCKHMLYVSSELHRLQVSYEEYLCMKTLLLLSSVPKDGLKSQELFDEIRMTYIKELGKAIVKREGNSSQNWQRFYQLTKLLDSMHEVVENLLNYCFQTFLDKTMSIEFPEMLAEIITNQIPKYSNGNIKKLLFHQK
Procedure: as §1, §2, §3, §4

SMILES: CC1=C(c2ccc(O)cc2)[C@H](c2ccc(OCCN3CC[C@@H](C)C3)cc2)Oc2cc(O)ccc21 [OP-1074]
- IC50 ([1]; MCF7, 22 h, read-out: IC50 inhibition of E2-stimulated transcription (Fig. 3a)): 3.2 nM
- IC50 ([1]; MCF7, 24 h, read-out: IC50 transcription): 1.8 ± 0.3 nM
- Agonist and antagonist activity on AR [2]: lacks agonist and antagonist activity
- Maximal AP activity in agonist mode relative to E2 control ([3]; 3 days, absence of E2, normalized to 500 pM E2, representative experiment (Fig. 2a)): 8%
- Induction of AP activity (% E2) ([3]; Maximum AP activity observed relative to positive control, 500 pM E2, means of n independent experiments ±s.d.): 10% ± 4.4 (n = 29) % E2
- Agonist and antagonist activity on GR [4]: lacks agonist and antagonist activity
